Measurements taken from patent US10377717B2, “Farnesoid X receptor agonists and uses thereof” (Metacrine, Inc., priority 2015, dated 2019).

Legend:
hFXR [1] = target: T1, hFXR (Homo sapiens (Human), UniProt Q96RI1); assay: In Vitro FXR Assay (PGL3), luciferase reporter in transfected CV-1 cells; format: cell-based; conditions: PGL3-ECRE*6-luc reporter, hFXR/hRXR, 18 hrs incubation
Method: CV-1 cells were seeded at a density of 2,000,000 cells in a T175 flask with DMEM+10% charcoal double-stripped FBS and incubated at 37° C. in a 5% CO2 for 18 h (O/N).
After 18 h of incubation, the medium in the T175 flask was changed with fresh DMEM+10% charcoal super-stripped serum.
To prepare the transfection reaction mixture, the transfection reagent (X-tremeGENE HP from Roche, Cat #06 366 236 001) was added in to a 1.5 mL microcentrifuge tube labelled “A” at a ratio of 1:3 (DNA in μg: transfection reagent in μL). OptiMEM medium (Life Technologies, Cat #31985-062) was added accordingly to provide a total volume of 1 mL. The transfection reaction mixture was then briefly vortexed and incubated at room temperature for 5 minutes.
In a separate 1.5 mL microcentrifuge tube labelled “B”, 100 μL OptiMEM and plasmids XPD90Gal pCMXhFXRfl, pCMXhRXRfl+PGL3-ECRE*6-luc+CMX-YFP in the ratio 2 μg: 2 μg:18 μg:3 μg were added. This microcentrifuge tube “B” was then briefly vortexed and incubated at room temperature for 5 minutes.
The total volume in tube labelled “A” was then transferred in to tube labelled “B.” The mixture was then briefly vortexed and the transfection:DNA complex was then incubated for about 15-20 minutes at room temperature.
Following incubation, the transfection reagent/DNA mixture complex was then added to cells in the T175 flask and the cells were incubated at […] (O/N) at 37° C. in 5% CO2.
In a 96 well plate, a half logarithmic serial dilution was prepared. OptiMEM was used as the diluent. Using any of one of the compounds described herein, a compound stock solution of 10 mM was prepared. An initial 1:100 dilution was made into the first well for a final concentration of 100 μM. The final concentrations in the 96-well plate was prepared by using a multichannel pipette to transfer 5 μL of the diluted compound to 384-well plate in quadruplicate.
Cells in T175 flask were trypsinized and cells were resuspending in 40 mL phenol red free DMEM+10% charcoal super-stripped FBS. Typically, one T175 flask was sufficient to seed two 384 well plates. CV-1 cells were seeded at 45 μL cell suspension/well using a multichannel pipet or a 384 multidrop dispenser. The cells were then incubated for 18 hrs, overnight.
After removing the plates from the incubator, the medium was flicked out of plate and 384 well plate was turned upside down onto paper towel. The remaining medium was gently tapped out. 15 μL lysis buffer was then added to each well using a multichannel pipet or a 384 well multi-drop dispenser. After incubation for 10 minutes at room temperature on shaker, 30 μL Luciferase buffer was added to each well. Luminescence counts were taken immediately using the Perkin Elmer Envision.
The ability of the compounds disclosed herein to […] FXR activity was quantified and the respective EC50 value was determined. Fex=fexaramine.

hFXR [2] = target: T1, hFXR; assay: In Vitro FXR Assay (TK), luciferase reporter in transfected CV-1 cells; format: cell-based; conditions: TK-ECRE-luc reporter, hFXR/hRXR, 18 hrs, maximum efficacy <25% of Fexaramine control classified as '+'
Summary of the method: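 CV-1 cells in DMEM with 10% charcoal-stripped FBS were co-transfected with hFXR, hRXR, TK-ECRE-luc reporter and pCMX-YFP plasmids. After 18 h, compounds serially diluted in DMSO were added for a further 18 h, then cells were lysed and luminescence read.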

T1 sequence (Q96RI1 whole entry): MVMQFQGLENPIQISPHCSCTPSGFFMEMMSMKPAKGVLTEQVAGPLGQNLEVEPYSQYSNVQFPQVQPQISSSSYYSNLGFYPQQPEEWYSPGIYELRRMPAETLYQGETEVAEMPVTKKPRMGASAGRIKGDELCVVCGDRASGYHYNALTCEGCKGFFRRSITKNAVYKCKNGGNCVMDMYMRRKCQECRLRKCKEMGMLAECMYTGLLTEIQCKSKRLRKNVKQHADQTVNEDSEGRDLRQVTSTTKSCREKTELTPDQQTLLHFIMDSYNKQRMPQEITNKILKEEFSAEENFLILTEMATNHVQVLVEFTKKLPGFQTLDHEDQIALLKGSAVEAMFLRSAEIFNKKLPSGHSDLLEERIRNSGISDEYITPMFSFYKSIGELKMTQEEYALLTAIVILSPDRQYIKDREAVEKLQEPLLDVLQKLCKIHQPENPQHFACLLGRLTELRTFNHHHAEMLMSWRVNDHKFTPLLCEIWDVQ
T1 sequence (P19793 whole entry partner): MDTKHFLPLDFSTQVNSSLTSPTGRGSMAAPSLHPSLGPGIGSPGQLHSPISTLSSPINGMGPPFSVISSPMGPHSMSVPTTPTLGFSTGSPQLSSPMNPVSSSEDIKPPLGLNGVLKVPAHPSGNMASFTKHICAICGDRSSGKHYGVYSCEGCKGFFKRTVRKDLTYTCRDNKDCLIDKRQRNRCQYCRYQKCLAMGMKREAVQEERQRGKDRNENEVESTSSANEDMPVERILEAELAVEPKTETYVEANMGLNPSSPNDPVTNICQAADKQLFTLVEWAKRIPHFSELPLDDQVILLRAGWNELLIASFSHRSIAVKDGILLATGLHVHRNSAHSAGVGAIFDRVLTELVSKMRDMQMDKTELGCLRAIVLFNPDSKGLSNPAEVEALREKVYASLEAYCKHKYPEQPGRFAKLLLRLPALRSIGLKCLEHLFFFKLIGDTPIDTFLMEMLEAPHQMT

SMILES	Cmpd/Fex (ratio of the EC50 for the test compound relative to the EC50 of the Fexaramine control) (hFXR [1])	EC50 (hFXR [2])
COC(=O)/C=C/c1ccnc(N(Cc2ccc(-c3ccc(N(C)C)nc3)cc2)C(=O)C2CCOCC2)c1 [Compound 6, (E)-Methyl 3-(2-(N-(4-(6-(dimethylamino)pyridin-3-yl)benzyl)tetrahydro-2H-pyran-4-carboxamido)pyridin-4-yl)acrylate]	+ (‘+’ means Cmpd/Fex > 100)	1 to 10 µM
CN(C)c1ccc(-c2ccc(CN(C(=O)C3CCCCC3)c3cccc4ccccc34)cc2)cc1 [Compound 9, N′-((4′-(Dimethylamino)-[1,1′-biphenyl]-4-yl)methyl)-N-(naphthalen-1-yl)cyclohexanecarboxamide]	++ (‘++’ means Cmpd/Fex > 10 & < 100)	≥ 10 µM
COC(=O)/C=C/c1ccnc(N(Cc2ccc(-c3ccc(N(C)C)nc3)cc2)C(=O)[C@H]2CC[C@H](O)CC2)c1 [Compound 7, (E)-Methyl 3-(2-(trans-N-(4-(6-(dimethylamino)pyridin-3-yl)benzyl)-4-hydroxycyclohexanecarboxamido)pyridin-4-yl)acrylate]	+ (‘+’ means Cmpd/Fex > 100)	1 to 10 µM
COC(=O)c1ccc2c(N(Cc3ccc(-c4ccc(OC)c(C)c4)cc3)C(=O)CC3CCC3)nccc2c1 [Compound 79, Methyl 1-(2-cyclobutyl-N-((4′-methoxy-3′-methyl-[1,1′-biphenyl]-4-yl)methyl)acetamido)isoquinoline-6-carboxylate]	–	≤ 1 µM
COC(=O)c1ccc2c(N(C[C@H]3CC[C@H](c4ccccc4OC)CC3)C(=O)CC(C)(C)C)nccc2c1 [Compound 92, Methyl 1-(N-((trans-4-(2-methoxyphenyl)cyclohexyl)methyl)-3,3-dimethylbutanamido)isoquinoline-6-carboxylate]	–	≥ 10 µM
COC(=O)c1ccc2c(N(Cc3ccc(-c4ccc5sc(C)nc5c4)cc3)C(=O)CC(C)(C)C)nccc2c1 [Compound 50, Methyl 1-(3,3-dimethyl-N-(4-(2-methylbenzo[d]thiazol-5-yl)benzyl)butanamido)isoquinoline-6-carboxylate]	–	1 to 10 µM
COC(=O)c1ccc2c(N(Cc3ccc(-c4ccc(OC)c(C)c4)cc3)C(=O)CC(C)C)nccc2c1 [Compound 70, Methyl 1-(N-((4′-methoxy-3′-methyl-[1,1′-biphenyl]-4-yl)methyl)-3-methylbutanamido)isoquinoline-6-carboxylate]	–	≤ 1 µM
COC(=O)c1ccc2c(N(Cc3ccc(-c4ccc(C(F)(F)F)nc4)cc3)C(=O)CC(C)(C)C)nccc2c1 [Compound 33, Methyl 1-(3,3-dimethyl-N-(4-(6-(trifluoromethyl)pyridin-3-yl)benzyl)butanamido)isoquinoline-6-carboxylate]	–	1 to 10 µM
COC(=O)c1ccc2c(N(C[C@H]3CC[C@H](c4ccc(OC)c(C)c4)CC3)C(=O)CC(C)(C)C)nccc2c1 [Compound 96, Methyl 1-(N-((trans-4-(4-methoxy-3-methylphenyl)cyclohexyl)methyl)-3,3-dimethylbutanamido)isoquinoline-6-carboxylate]	–	≤ 1 µM
COc1ccc(-c2ccc(CN(C(=O)CC(C)(C)C)c3nccc4cc(C(=O)OC(C)C)ccc34)cc2)cc1C#N [Compound 68, Isopropyl 1-(N-((3′-cyano-4′-methoxy-[1,1′-biphenyl]-4-yl)methyl)-3,3-dimethylbutanamido) isoquinoline-6-carboxylate]	–	≤ 1 µM
COc1ccc(-c2ccc(CN(C(=O)CC(C)(C)C)c3nccc4cc(CCC(=O)O)ccc34)cc2)cc1C [Compound 104, 3-(1-(N-((4′-Methoxy-3′-methyl-[1,1′-biphenyl]-4-yl)methyl)-3,3-dimethylbutanamido)isoquinolin-6-yl)propanoic Acid]	–	1 to 10 µM

Continued, values first:

Cmpd/Fex (ratio of the EC50 for the test compound relative to the EC50 of the Fexaramine control) (hFXR [1])	EC50 (hFXR [2])	SMILES
+++ (‘+++’ means Cmpd/Fex < 10)	1 to 10 µM	COC(=O)/C=C/c1ccnc(N(Cc2ccc(-c3ccc(N(C)C)cc3)cc2)C(=O)C2CCOCC2)c1 [Compound 4, (E)-Methyl 3-(2-(N-((4′-(dimethylamino)-[1,1′-biphenyl]-4-yl)methyl)tetrahydro-2H-pyran-4-carboxamido)pyridin-4-yl)acrylate]
+++ (‘+++’ means Cmpd/Fex < 10)	1 to 10 µM	COC(=O)/C=C/c1cc(N(Cc2ccc(-c3ccc(N(C)C)cc3)cc2)C(=O)C2CCCCC2)ccn1 [Compound 3, (E)-Methyl 3-(4-(N-((4′-(dimethylamino)-[1,1′-biphenyl]-4-yl)methyl)cyclohexanecarboxamido)pyridin-2-yl)acrylate]
+++ (‘+++’ means Cmpd/Fex < 10)	≤ 1 µM	COC(=O)/C=C/c1ccnc(N(Cc2ccc(-c3ccc(N(C)C)cc3)cc2)C(=O)C2CCCCC2)c1 [Compound 1, (E)-Methyl 3-(2-(N-((4′-(dimethylamino)-[1,1′-biphenyl]-4-yl)methyl)cyclohexanecarboxamido)pyridin-4-yl)acrylate]
–	≥ 10 µM	COC(=O)c1cc(N(Cc2ccc(-c3ccc(N(C)C)cc3)cc2)C(=O)C2CCCCC2)c2ccccc2c1 [Compound 16, Methyl 4-(N-((4′-(dimethylamino)-[1,1′-biphenyl]-4-yl)methyl)cyclohexanecarboxamido)-2-naphthoate]
++ (‘++’ means Cmpd/Fex > 10 & < 100)	≥ 10 µM	COC(=O)/C=C/c1cccc(N(Cc2ccc(-c3ccc(N(C)C)cc3)cc2)C(=O)C2CCCCC2)n1 [Compound 2, (E)-Methyl 3-(6-(N-((4′-(dimethylamino)-[1,1′-biphenyl]-4-yl)methyl)cyclohexanecarboxamido)pyridin-2-yl)acrylate]
++ (‘++’ means Cmpd/Fex > 10 & < 100)	1 to 10 µM	COC(=O)c1ccc2c(N(Cc3ccc(-c4ccc(N(C)C)cc4)cc3)C(=O)C3CCCCC3)cccc2c1 [Compound 8, Methyl 5-(N-((4′-(dimethylamino)-[1,1′-biphenyl]-4-yl)methyl)cyclohexanecarboxamido)-2-naphthoate]
